Experimental data reported in patent US20220401440A1, “DOSING REGIMENS FOR A PROTEIN KINASE C INHIBITOR” (IDEAYA BIOSCIENCES, INC., priority 2019, published 2022).
Several values for one entry are separate records, joined by “and”; a condition that tells them apart may be missing. Equal values may be shown once. Read-outs that look alike come from different tables or passages of the source.

Test: Phase 1/2 study: plasma pharmacokinetics of Compound (I) in patients (LC-MS/MS, non-compartmental analysis)
Type: in vivo, human
Details: for Race: mean ± SD
Protocol: The following example presents a phase 1/2 study of Compound (I) in patients with solid tumors harboring GNAQ/11 mutations or PRKC fusions.
Patients with MUM were sequentially enrolled into Cohort 1 or Cohort 2. Enrollment into Cohort 2 was not initiated until enrollment into Cohort 1 was completed and the dose considered safe. • a. Cohort 1. 6 patients were sequentially enrolled and received 300 mg twice a day (BID), daily, for 28-day treatment cycles. • b. Cohort 2. 6 patients were sequentially enrolled and received 400 mg BID, preceded by an initial 7-day 200 mg BID run-in period, for 28-day treatment cycles. All patients continue to receive treatment with Compound (I) unless the subject experiences one or more of the following: • Adverse event • Lost to follow-up • Physician decision • Progressive disease • Study termination by the Sponsor • Patient/guardian decision • Protocol deviation • Non-compliance with protocol • Death • Pregnancy NUMBER OF SUBJECTS: 12 patients
The following example presents pharmacokinetic results from the study as described in Example 1.
Blood samples were collected on Cycle 1 Day 1 and Day 15 from patients who were administered 300 mg BID of Compound (I), and on Cycle 1 Day 8 and Day 22 from patients who were administered 200 mg BID for 7 days followed by 400 mg BID of Compound (I) for the remainder of the treatment cycle. The plasma samples were processed by protein precipitation (see Ahuja S and Dong M. W, Handbook of Pharmaceutical Analysis by HPLC, Elsevier Inc., Chapter 17, page 433, 2005) and analyzed using an LC-MS/MS method; Quantification was achieved using Compound (I) peak area to internal standard (3-amino-N-(3-(4-amino-4-(methyl-d3)piperidin-1-yl)pyridin-2-yl)-6-(3-(trifluoromethyl)pyridin-2-yl)pyrazine-2-carboxamide) peak area ratios. Concentrations of the calibration curve standards, quality control samples, and patient samples were determined by the method of 1/x^2 weighted least squares linear regression.
The Pharmacokinetic parameters were calculated using Phoenix WinNonlin software (non-compartmental analysis).

[1] = individual patients, 300 mg BID
[2] = individual patients, 300 mg BID, C1 Day 1
[3] = individual patients, 300 mg BID, C1 Day 15
[4] = individual patients, 400 mg BID with 200 mg run-in
[5] = individual patients, 400 mg BID with 200 mg run-in, C1 Day 8
[6] = individual patients, 400 mg BID with 200 mg run-in, C1 Day 22

With CC1(N)CCN(c2cccnc2NC(=O)c2nc(-c3ncccc3C(F)(F)F)cnc2N)CC1 [Compound (I), 3-amino-N-(3-(4-amino-4-methylpiperidin-1-yl)pyridin-2-yl)-6-(3-(trifluoromethyl)pyridin-2-yl)pyrazine-2-carboxamide] the “Free AUC0-12 (mean free plasma)” value (300 mg BID) was 260 ± 95 ng·h/mL, the Cmin (300 mg BID, Cycle 1 Day 15, mean ± SD, n = 12) was 790 ± 345 ng/mL and the Race (300 mg BID, n = 12) was 0.74 ± 0.31. For the same molecule, the “Free AUC0-12 (mean free plasma)” value (400 mg BID with 200 mg run-in) was 396 ± 222 ng·h/mL, the Cmin (400 mg BID with 200 mg run-in, Cycle 1 Day 22, mean ± SD, n = 24) was 1120 ± 806 ng/mL and the Race (400 mg BID with 200 mg run-in, n = 24) was 0.97 ± 0.29. The “mean exposure on C1D8 (200 mg BID 7 days then 400 mg BID) compared to C1D1 of 300 mg BID” value (human, in vivo) was “lower mean exposure”, the “mean free plasma AUC0-12, higher at 400 mg BID with 200 mg run-in than at 300 mg BID” value (human, in vivo) was “about 44%” and the AUC(0-t) (human, plasma, oral, 300 mg, 300 mg BID, Cycle 1 Day 1, mean ± SD, n = 12, read-out: AUC0-12) was 26200 ± 11100 ng·h/mL. For the same molecule, the Cmax (human, plasma, oral, 300 mg, 300 mg BID, Cycle 1 Day 1, mean ± SD, n = 12, read-out: Cmax) was 4600 ± 2300 ng/mL, the AUC(0-t) (human, plasma, oral, 300 mg, 300 mg BID, Cycle 1 Day 15, mean ± SD, n = 12, read-out: AUC0-12) was 16800 ± 5380 ng·h/mL and the Cmax (human, plasma, oral, 300 mg, 300 mg BID, Cycle 1 Day 15, mean ± SD, n = 12, read-out: Cmax) was 2860 ± 690 ng/mL. The AUC(0-t) (human, plasma, oral, 300 mg, individual patient 10001-00022, 300 mg BID, C1 Day 1 (footnote a: AUC0-8), read-out: AUC0-8) was 35900 ng·h/mL, the AUC(0-t) (human, plasma, oral, 400 mg BID, 400 mg BID with 200 mg run-in, Cycle 1 Day 8, mean ± SD, n = 24, read-out: AUC0-12) was 24400 ± 12100 ng·h/mL and the Cmax (human, plasma, oral, 400 mg BID, 400 mg BID with 200 mg run-in, Cycle 1 Day 8, mean ± SD, n = 24, read-out: Cmax) was 3930 ± 1880 ng/mL. The AUC(0-t) (human, plasma, oral, 400 mg BID, 400 mg BID with 200 mg run-in, Cycle 1 Day 22, mean ± SD, n = 24, read-out: AUC0-12) was 21500 ± 10800 ng·h/mL, the Cmax (human, plasma, oral, 400 mg BID, 400 mg BID with 200 mg run-in, Cycle 1 Day 22, mean ± SD, n = 24, read-out: Cmax) was 3580 ± 1390 ng/mL and the “AUC ratio D15/D1” value [1] was 0.83 and 0.87 and 1.53 and 0.67 and 1.1 and 0.66 (2×) and 0.44 and 0.51 and 0.41 and 0.62 and 1.22 and 0.61. The “Cmin on C1D15” value [1] was 645 ng/mL and 626 ng/mL and 175 ng/mL and 792 ng/mL and 1075 ng/mL and 1212 ng/mL and 1088 ng/mL and 798 ng/mL and 322 ng/mL and 1337 ng/mL and 1549 ng/mL and 715 ng/mL and 699 ng/mL, the AUC0-12 [2] was 22974 ng·h/mL and 17983 ng·h/mL and 3597 ng·h/mL and 22480 ng·h/mL and 19439 ng·h/mL and 43190 ng·h/mL and 35321 ng·h/mL and 26969 ng·h/mL and 39949 ng·h/mL and 233274 ng·h/mL and 26345 ng·h/mL and 19768 ng·h/mL and the Cmax [2] was 3159 ng/mL and 2980 ng/mL and 607 ng/mL and 3147 ng/mL and 4367 ng/mL and 8940 ng/mL and 7009 ng/mL and 5386 ng/mL and 6252 ng/mL and 5549 ng/mL and 3866 ng/mL and 5523 ng/mL and 2256 ng/mL. For the same molecule, the Tmax [2] was 4 h and 2 h and 1 h and 0.5 h, the AUC0-12 [3] was 19049 ng·h/mL and 15640 ng·h/mL and 5511 ng·h/mL and 15071 ng·h/mL and 21194 ng·h/mL and 23600 ng·h/mL and 19185 ng·h/mL and 17909 ng·h/mL and 10949 ng·h/mL and 24582 ng·h/mL and 28493 ng·h/mL and 16155 ng·h/mL and 13083 ng·h/mL and the Cmax [3] was 3965 ng/mL and 2149 ng/mL and 1392 ng/mL and 3079 ng/mL and 2984 ng/mL and 3442 ng/mL and 2782 ng/mL and 2574 ng/mL and 2969 ng/mL and 3618 ng/mL and 4203 ng/mL and 2348 ng/mL and 2971 ng/mL. The Tmax [3] was 0.5 h and 1 h and 2 h, the “AUC ratio D22/D8” value [4] was 1.3 (3×) and 1.1 (2×) and 0.84 and 0.66 and 0.75 and 1.0 (3×) and 0.85 and 0.95 and 0.59 and 0.88 and 1.5 and 0.42 and 1.2 and 0.64 and 0.70 and 1.4 and the “Cmin on C1D22” value [4] was 1019 ng/mL and 969 ng/mL and 931 ng/mL and 497 ng/mL and 533 ng/mL and 674 ng/mL and 916 ng/mL and 777 ng/mL and 179 ng/mL and 1631 ng/mL and 334 ng/mL and 1110 ng/mL and 264 ng/mL and 3140 ng/mL and 1082 ng/mL and 1887 ng/mL and 478 ng/mL and 1912 ng/mL and 1592 ng/mL and 2909 ng/mL and 677 ng/mL. The AUC0-12 [5] was 17779 ng·h/mL and 19720 ng·h/mL and 22367 ng·h/mL and 23416 ng·h/mL and 16365 ng·h/mL and 28796 ng·h/mL and 13072 ng·h/mL and 56156 ng·h/mL and 22089 ng·h/mL and 23178 ng·h/mL and 18745 ng·h/mL and 6311 ng·h/mL and 38119 ng·h/mL and 13309 ng·h/mL and 22361 ng·h/mL and 10348 ng·h/mL and 32689 ng·h/mL and 48672 ng·h/mL and 23856 ng·h/mL and 17650 ng·h/mL and 43163 ng·h/mL and 23378 ng·h/mL and 30601 ng·h/mL and 13604 ng·h/mL, the Cmax [5] was 2068 ng/mL and 2948 ng/mL and 2077 ng/mL and 7600 ng/mL and 2121 ng/mL and 2580 ng/mL and 1949 ng/mL and 7450 ng/mL and 3838 ng/mL and 6560 ng/mL and 4478 ng/mL and 1922 ng/mL and 6872 ng/mL and 4037 ng/mL and 2949 ng/mL and 2603 ng/mL and 3474 ng/mL and 7043 ng/mL and 2520 ng/mL and 2531 ng/mL and 4952 ng/mL and 4452 ng/mL and 4329 ng/mL and 3053 ng/mL and the Tmax [5] was 2 h and 1 h and 6 h and 0.5 h and 4 h. For the same molecule, the AUC0-12 [6] was 22282 ng·h/mL and 21010 ng·h/mL and 18847 ng·h/mL and 15424 ng·h/mL and 12278 ng·h/mL and 13221 ng·h/mL and 18705 ng·h/mL and 20068 ng·h/mL and 6604 ng·h/mL and 36219 ng·h/mL and 7788 ng·h/mL and 19634 ng·h/mL and 10656 ng·h/mL and 48381 ng·h/mL and 20635 ng·h/mL and 28583 ng·h/mL and 11327 ng·h/mL and 30027 ng·h/mL and 32888 ng·h/mL and 38889 ng·h/mL and 18178 ng·h/mL and the Cmax [6] was 2556 ng/mL and 2756 ng/mL and 1709 ng/mL and 5026 ng/mL and 2562 ng/mL and 1911 ng/mL and 2853 ng/mL and 2578 ng/mL and 5948 ng/mL and 2203 ng/mL and 2403 ng/mL and 1992 ng/mL and 5663 ng/mL and 5314 ng/mL and 3276 ng/mL and 4296 ng/mL and 5657 ng/mL and 5617 ng/mL and 3676 ng/mL and 3890 ng/mL.
